Source: patent US8168178B2, “Methods and compositions for regulating lymphocyte activity” (Curis, Inc., priority 1999, dated 2012)

Legend:
[1] = test system: thymocytes in wild-type FTOC; conditions: cited from earlier work
[2] = test system: thymocytes in Shh−/− FTOC; test: FTOC of E14.5 Shh−/− thymus explants treated with recombinant Shh; format: cell-based, mouse
Experimental: As thymocyte cellularity and differentiation were reduced in Shh−/− thymi, we examined if we could promote thymocyte development in Shh−/− thymus explants by treatment with recombinant Shh. We have previously shown that treatment of wildtype FTOC with between 0.3 to 1 μg/ml recombinant Shh arrested thymocyte development at the DN stage (Outram et al., 2000). […] We treated Shh−/− thymus explants for 7 days with 0.5 or 0.0005 μg/ml recombinant Shh. Treatment with 0.5 μg/ml Shh inhibited differentiation from DN to DP cells. In a typical experiment, 5.2% of thymocytes were DP in the treated cultures compared with 36.6% in control cultures (FIG. 12, D and E). Thus, Shh−/− thymocytes were able to respond to a Shh signal in the same way as wildtype thymocytes, despite the fact that they had not been exposed to Shh in vivo. Although this high dose of Shh arrested thymocyte differentiation, some activation of the Hh signalling pathway is clearly necessary for normal thymocyte differentiation. We therefore treated Shh−/− explants with a 1000-fold lower dose of recombinant Shh (0.0005 μg/ml). Treatment of Shh−/− thymus explants with low-dose Shh promoted differentiation to DP cell: After 7 days in culture Shh−/− thymus explants treated with 0.0005 μg/ml Shh contained more DP thymocytes than untreated Shh−/− thymus explants −41.6% DP thymocytes and 32.7% DN thymocytes in treated Shh−/− thymus explants, compared with 36.6% DP cells and 43.1% DN cells in untreated control Shh−/− thymus cultures (FIG. 9b).
We repeated these experiments by treating individual Shh−/− thymus lobes with recombinant Shh and comparing them to untreated cultures of the other lobe from the same embryo (summarized in FIG. 12F, cell production in each culture condition compared with that in the control lobe are shown on a log scale).
(§1) Thymocyte suspensions were prepared by crushing thymi between two pieces of ground glass. Cells were stained using combinations of the following directly conjugated antibodies obtained from BD Pharmingen: anti-CD44FITC, anti-CD44Cychrome, anti-CD25 PE, anti-CD25 FITC, anti-CD4FITC, anti-CD8 Cychrome, anti-CD4PE, anti-CD4Cychrome, anti-CD8FITC, anti-CD45.1PE, anti-CD45.2FITC, anti-CD3PE and anti-TCR-βPE. Cell suspensions were stained with the antibodies for 30 minutes on ice in 50 μl of Dulbeccos modified medium (Life Technologies), supplemented with 5% FCS and 0.1% sodium azide. Cells were washed in this medium between incubations and prior to analysis on the FACScan (Becton Dickinson). Events were collected in list mode using CellQuest software and data analysed using CellQuest Pro software. Live cells were gated according to their FSC and SSC profiles. Data are representative of at least three experiments.
(§2) Fetal thymi were dissected from E14.5 Shh +/+, +/− and −/− mice and cultured on 8 μm pore size Millipore filters (Millipore) in AIM-V serum free medium (Life Technologies). Thymi were cultured at 37° C. and 5% CO2 for 3 or 6 days or cultured in the presence of 0.5 μg/ml or 0.0005 μg/ml modified human Shh (Curis) for 7 days.

[3] = test system: thymocytes in wild-type FTOC; test: Fetal thymic organ culture (FTOC) of wild-type thymus, flow cytometry of thymocyte subsets; format: cell-based, mouse
Experimental: Utilizing a fetal thymic organ culture (FTOC), the effects of Shh on T-cell maturation was determined. Briefly, immature thymocytes (CD4^−/CD8^− [DN]) were isolated from E14 thymus. The cells were culture for about 7 days, and the level of mature thymocytes, e.g., CD4^+/CD8^+ [DP], was assessed. In certain cultures, octyl-modified Shh was added to the culture; in other cultures, the anti-hedgehog 5E1 antibody was added.
We have previously shown that treatment of wild-type FTOC with between 0.3 and 1 μg/ml recombinant Shh arrested thymocyte development at the DN stage (Outram et al., Immunity 13: 187, 2000). This arrest was not due to nonspecific toxicity of the recombinant Shh, but was a genuine biological effect, as it could be neutralized by addition of anti-Hh mAb. […] Therefore, we decided to determine whether treatment of FTOC with lower concentrations of Shh could promote thymocyte development. We treated wild-type FTOC for 5 days with 0.0005 μg/ml Shh or 0.5 μg/ml Shh. In a typical experiment, treatment with 0.5 μg/ml Shh arrested thymocyte development at the DN stage, and <1% of thymocytes were DP compared with 7.6% in the control cultures, whereas treatment with 0.0005 μg/ml Shh promoted thymocyte development, and 15.2% of cells were DP (FIG. 12A). […] Treatment with 0.5 μg/ml inhibited both the production of DP cells and the overall cell recovery, and this inhibition was neutralized by addition of anti-Hh mAb, confirming that the arrest in thymocyte development was not the result of non-specific toxicity of the reagent (FIG. 12B). Thus, in wild-type FTOC, treatment with different concentrations of recombinant Shh can produce distinct outcomes at the transition from DN to DP cells; high-dose Shh treatment arrests thymocyte development, but treatment with a 1000-fold lower dose promotes the production of DP cells (FIG. 12, A-C).
as §1, §2

## Shh: hydrophobically modified human Shh signalling protein, N-octyl-malemide coupled to amino-terminal cysteine of bacterially derived N-shh (Curis)
[1]; in vitro treatment of FTOC (Outram et al. 2000)
  thymocyte development at the DN3 stage, after TCRβ chain gene rearrangement: arrested
[1]; wild-type FTOC, between 0.3 and 1 μg/ml recombinant Shh (Outram et al. 2000)
  thymocyte development at the DN stage: arrested
[2]; Shh−/− explants, 7 days, 0.0005 μg/ml Shh, untreated 43.1%
  DN thymocytes: 32.7%
[2]; Shh−/− explants, 7 days, 0.5 μg/ml Shh, control cultures 36.6%
  thymocytes that were DP: 5.2%
[2]; Shh−/− explants, low dose treatment (0.0005 μg/ml), overall
  production of DP cells: more than doubled
[2]; Shh−/− explants, low-dose Shh (0.0005 μg/ml)
  cell number compared to control: increased
[2]; Shh−/− thymus explants, 0.5 μg/ml Shh
  differentiation from DN to DP cells: inhibited
[2]; individual Shh−/− thymus lobes, high dose Shh
  overall cell production and differentiation to DP cell: inhibited
[3]; E14 thymus, about 7 days culture, high dose of Shh 0.5 μg/ml
  percentage of cells with markers indicative of immature thymocytes: increase
[3]; FTOC, FIG. 12B
  Shh concentration at which Hedgehog functions as an immunosuppressant: more than 0.1 μg/ml
[3]; wild-type FTOC, 0.00005 μg/ml
  promotion of thymocyte development: lost
[3]; wild-type FTOC, 5 days, 0.0005 μg/ml Shh, control cultures 7.6%
  cells that were DP: 15.2%
[3]; wild-type FTOC, 5 days, 0.5 μg/ml Shh, control cultures 7.6%
  thymocytes that were DP: < 1%
